Where two headings read alike, the source gives them in different places.
Experiments:
[1] = target: T1, complement C5a receptor 1 (C5aR1) (Homo sapiens, UniProt P21730); assay: β-arrestin recruitment via C5aR1 activation in live CHO-K1 cells (PathHunter), antagonist mode; assay type: cell-based; conditions: antagonist mode; recombinant hC5a (EC90) as competing natural agonist; live CHO-K1 cells; read-out: [Antagonist] B-arrestin2 recruitment: Average IC50
T1 construct: β-galactosidase fragment (PathHunter enzyme complementation); host or cells: CHO-K1 (PathHunter CHO-K1 C5aR1 β-arrestin cell line)
T1 sequence (P21730 1-350): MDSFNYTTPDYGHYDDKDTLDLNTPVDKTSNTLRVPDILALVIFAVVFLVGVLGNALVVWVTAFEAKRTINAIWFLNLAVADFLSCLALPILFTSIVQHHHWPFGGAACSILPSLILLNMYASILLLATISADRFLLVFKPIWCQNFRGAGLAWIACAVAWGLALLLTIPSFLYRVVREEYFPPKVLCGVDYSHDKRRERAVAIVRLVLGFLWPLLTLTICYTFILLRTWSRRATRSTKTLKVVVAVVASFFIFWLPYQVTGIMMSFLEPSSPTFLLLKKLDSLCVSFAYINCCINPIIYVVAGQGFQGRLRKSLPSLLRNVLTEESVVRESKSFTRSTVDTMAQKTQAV
In short: (§1)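 β-arrestin recruitment to C5aR1 in CHO-K1 cells is detected by enzyme-fragment complementation. Antagonism is measured against recombinant hC5a at its EC90; agonism is measured with compound alone. Potencies are grouped into IC50 categories.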

[2] = target: T1, complement C5a receptor 1 (C5aR1); assay: β-arrestin recruitment via C5aR1 activation in live CHO-K1 cells (PathHunter), agonist mode; assay type: cell-based
In short: as §1

Structure (SMILES) | IC50 [1] | [Agonist] B-arrestin2 recruitment: Average EC50 (nM) [2] | [Agonist] B-arrestin2 recruitment: Average EC50 (nM) ([2]; at 10 μM)
COc1ccnc(F)c1N1CCC(c2cc3nccnc3n(Cc3ccccc3C(F)(F)F)c2=O)CC1 [compound 33, 7-(1-(2-Fluoro-4-methoxypyridin-3-yl)piperidin-4-yl)-5-(2-(trifluoromethyl)benzyl)pyrido[2,3-b]pyrazin-6(5H)-one] | 500 to 5000 nM | Non-Active | 
Cc1cnc2cc(N3CCN(c4c(C)cccc4F)CC3)c(=O)n(Cc3ncccc3C(F)(F)F)c2n1 [compound 67, 7-(4-(2-Fluoro-6-methylphenyl)piperazin-1-yl)-3-methyl-5-((3-(trifluoromethyl)pyridin-2-yl)methyl)pyrido[2,3-b]pyrazin-6(5H)-one] | < 500 nM | Non-Active | 
Cc1cnc2cc(C3CCN(c4ncsc4C)CC3)c(=O)n(Cc3ncccc3C(F)(F)F)c2n1 [compound 131] | < 500 nM | Non-Active | 
Cc1ccc2cc([C@H]3CC[C@H](c4c(C)cccc4F)CC3)c(=O)n(Cc3nccnc3OC(F)F)c2n1 [compound 233, 1-((3-(Difluoromethoxy)pyrazin-2-yl)methyl)-3-((1r,4r)-4-(2-fluoro-6-methylphenyl)cyclohexyl)-7-methyl-1,8-naphthyridin-2(1H)-one] | < 500 nM |  | Non-Active at 10 μM
Cc1ccc2cc([C@H]3CC[C@H](c4c(C)ccnc4F)CC3)c(=O)n(Cc3ncccc3OC(F)(F)F)c2n1 [compound 255, 7-Methyl-3-[(1r,4r)-4-(2-fluoro-4-methyl-3-pyridyl)cyclohexyl]-1-[(3-trifluoromethoxy-2-pyridyl)methyl]-1,8-diaza-2(1H)-naphthalenone] | < 500 nM | Non-Active | 
COc1nccc(C)c1[C@H]1CC[C@H](c2cc3ncc(C)nc3n(Cc3ncccc3C(F)(F)F)c2=O)CC1 [compound 230, 7-((1r,4r)-4-(2-Methoxy-4-methylpyridin-3-yl)cyclohexyl)-3-methyl-5-((3-(trifluoromethyl)pyridine-2-yl)methyl)pyrido[2,3-b]pyrazin-6(5H)-one] | < 500 nM |  | Non-Active at 10 μM
Cc1cnc2cc(C3CCN(c4nccnc4C)CC3)c(=O)n(Cc3ncccc3OC(F)(F)F)c2n1 [compound 153, 3-Methyl-7-(1-(3-methylpyrazin-2-yl)piperidin-4-yl)-5-((3-(trifluoromethoxy)pyridin-2-yl)methyl)pyrido[2,3-b]pyrazin-6(5H)-one] | 500 to 5000 nM |  | Non-Active at 10 μM
O=c1c(C2CCN(c3cnccc3C(F)(F)F)CC2)cc2nccnc2n1Cc1nccnc1C(F)(F)F [compound 70, 5-((3-(Trifluoromethyl)pyrazin-2-yl)methyl)-7-(1-(4-(trifluoromethyl)pyridin-3-yl)piperidin-4-yl)pyrido[2,3-b]pyrazin-6(5H)-one] | 500 to 5000 nM | Non-Active | 
Cc1cnc2cc([C@H]3CC[C@H](c4ccccc4C(F)(F)F)CC3)c(=O)n(Cc3ncccc3C(F)(F)F)c2n1 [compound 202, 3-Methyl-7-((1r,4r)-4-(2-(trifluoromethyl)phenyl)cyclohexyl)-5-((3-(trifluoromethyl)pyridin-2-yl)methyl)pyrido[2,3-b]pyrazin-6(5H)-one] | < 500 nM |  | Non-Active at 10 μM
Cc1cnc2cc(N3CCN(c4c(C)cccc4F)CC3)c(=O)n(Cc3nccnc3OC(F)F)c2n1 [161A, 5-((3-(Difluoromethoxy)pyrazin-2-yl)methyl)-7-(4-(2-fluoro-6-methylphenyl)piperazin-1-yl)-3-methylpyrido[2,3-b]pyrazin-6(5H)-one] | 500 to 5000 nM |  | Non-Active at 10 μM
Cc1ccc2cc([C@H]3CC[C@H](c4c(C)cccc4F)CC3)c(=O)n(Cc3nccnc3C3CC3)c2n1 [compound 257, 1-[(3-Cyclopropyl-2-pyrazinyl)methyl]-7-methyl-3-[(1r,4r)-4-(2-fluoro-6-tolyl)cyclohexyl]-1,8-diaza-2(1H)-naphthalenone] | < 500 nM | Non-Active | 
COc1cccnc1Cn1c(=O)c([C@H]2CC[C@H](c3c(C)cccc3F)CC2)cc2nc(C(F)(F)F)cnc21 [compound 214, 7-((1r,4r)-4-(2-Fluoro-6-methylphenyl)cyclohexyl)-5-((3-methoxypyridin-2-yl)methyl)-2-(trifluoromethyl)pyrido[2,3-b]pyrazin-6(5H)-one] | 5000 to 100000 nM |  | Non-Active at 10 μM
Cc1cnc2cc([C@H]3CC[C@H](c4nn(C)c5ccccc54)CC3)c(=O)n(Cc3ncccc3C(F)(F)F)c2n1 [compound 191, 3-Methyl-7-((1r,4r)-4-(1-methyl-1H-indazol-3-yl)cyclohexyl)-5-((3-(trifluoromethyl)pyridin-2-yl)methyl)pyrido[2,3-b]pyrazin-6(5H)-one] | 5000 to 100000 nM |  | Non-Active at 10 μM
Cc1cnc2cc([C@H]3CC[C@@H](c4c(C)cccc4F)C3)c(=O)n(Cc3nccnc3C)c2n1 [172A, 7-((1S,3R)-3-(2-Fluoro-6-methylphenyl)cyclopentyl)-3-methyl-5-((3-methylpyrazin-2-yl)methyl)pyrido[2,3-b]pyrazin-6(5H)-one] | 500 to 5000 nM |  | Non-Active at 10 μM
Cc1cccc(F)c1N1CCC(c2cc3nccnc3n(Cc3ncccc3OC(F)(F)F)c2=O)CC1 [compound 87, 7-(1-(2-Fluoro-6-methylphenyl)piperidin-4-yl)-5-((3-(trifluoromethoxy)pyridin-2-yl)methyl)pyrido[2,3-b]pyrazin-6(5H)-one] | < 500 nM | Non-Active | 
Cc1c(C2CCN(c3cccnc3C(F)(F)F)CC2)c(=O)n(Cc2ccccc2F)c2nccnc12 [compound 11, 5-(2-Fluorobenzyl)-8-methyl-7-(1-(2-(trifluoromethyl)pyridin-3-yl)piperidin-4-yl)pyrido[2,3-b]pyrazin-6(5H)-one] | > 100000 nM | Non-Active | 
Cc1cnc2cc([C@H]3CC[C@H](c4c(C)cccc4F)CC3)c(=O)n(Cc3ncccc3CC(F)F)c2n1 [compound 232, 5-((3-(2,2-Difluoroethyl)pyridin-2-yl)methyl)-7-((1r,4r)-4-(2-fluoro-6-methylphenyl)cyclohexyl)-3-methylpyrido[2,3-b]pyrazin-6(5H)-one] | < 500 nM |  | Non-Active at 10 μM
Cc1cnc2cc(C3CCN(c4nccnc4C(F)(F)F)CC3)c(=O)n(Cc3ncccc3C(F)(F)F)c2n1 [compound 156, 3-Methyl-7-(1-(3-(trifluoromethyl)pyrazin-2-yl)piperidin-4-yl)-5-((3-(trifluoromethyl)pyridin-2-yl)methyl)pyrido[2,3-b]pyrazin-6(5H)-one] | 500 to 5000 nM |  | Non-Active at 10 μM
Cc1cnc2cc([C@H]3CC[C@H](c4c(C)cccc4F)CC3)c(=O)n(Cc3nccnc3C)c2n1 [137B, (R)-7-((1r,4r)-4-(2-Fluoro-6-methylphenyl)cyclohexyl)-3-methyl-5-((3-methylpyrazin-2-yl)methyl)pyrido[2,3-b]pyrazin-6(5H)-one] | < 500 nM |  | Non-Active at 10 μM
COc1cnc2cc(C3CCN(c4c(C)cccc4F)CC3)c(=O)n(Cc3ccccc3C(F)(F)F)c2n1 [compound 58, 7-(1-(2-Fluoro-6-methylphenyl)piperidin-4-yl)-3-methoxy-5-(2-(trifluoromethyl)benzyl)pyrido[2,3-b]pyrazin-6(5H)-one] | 500 to 5000 nM | Non-Active | 
Cc1cnc2cc([C@H]3CC[C@H](c4ccc5c(cnn5C)c4)CC3)c(=O)n(Cc3ncccc3C(F)(F)F)c2n1 [compound 192, 3-Methyl-7-((1r,4r)-4-(1-methyl-1H-indazol-5-yl)cyclohexyl)-5-((3-(trifluoromethyl)pyridin-2-yl)methyl)pyrido[2,3-b]pyrazin-6(5H)-one] | 500 to 5000 nM |  | Non-Active at 10 μM
Cc1cccc(F)c1N1CCC(c2c(C)c3nccnc3n(Cc3ncccc3C(F)(F)F)c2=O)CC1 [compound 57, 7-(1-(2-Fluoro-6-methylphenyl)piperidin-4-yl)-8-methyl-5-((3-(trifluoromethyl)pyridin-2-yl)methyl)pyrido[2,3-b]pyrazin-6(5H)-one] | < 500 nM | Non-Active | 
CCCc1cnc2cc([C@H]3CC[C@H](c4c(C)cccc4F)CC3)c(=O)n(Cc3ncccc3C(F)(F)F)c2n1 [compound 227, 7-((1r,4r)-4-(2-Fluoro-6-methylphenyl)cyclohexyl)-3-propyl-5-((3-(trifluoromethyl)pyridin-2-yl)methyl)pyrido[2,3-b]pyrazin-6(5H)-one] | < 500 nM |  | Non-Active at 10 μM
